Patent US11186577B2, “Vasopressin receptor antagonists and products and methods related thereto” (BlackThorn Therapeutics, Inc., priority 2017, dated 2021)

What was measured:
[1] = target: human Arginine Vasopressin Receptor 1a (AVPR1a) (Homo sapiens (Human), UniProt P37288); assay: Vasopressin V1A receptor antagonist assay (AVP-evoked calcium, FLIPR, CHO-AVPR1a cells); format: cell-based; settings: read-out: V1a IC50
Method in brief: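 Antagonism measured as reduction of AVP (EC80, set each assay day) calcium response on FLIPR in dye-loaded CHO-AVPR1a cells. Compounds, 3 μM top in 10-point 1:3 dilution, in duplicate, added 15 min before agonist at 37° C.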

[2] = target: human Oxytocin Receptor (hOTR) (Homo sapiens (Human), UniProt P30559); assay: Oxytocin receptor antagonist assay (oxytocin-evoked calcium, FLIPR, CHEM-1-hOTR cells); format: cell-based; settings: read-out: OT IC50
Sequence of human Oxytocin Receptor (hOTR) (P30559 whole entry): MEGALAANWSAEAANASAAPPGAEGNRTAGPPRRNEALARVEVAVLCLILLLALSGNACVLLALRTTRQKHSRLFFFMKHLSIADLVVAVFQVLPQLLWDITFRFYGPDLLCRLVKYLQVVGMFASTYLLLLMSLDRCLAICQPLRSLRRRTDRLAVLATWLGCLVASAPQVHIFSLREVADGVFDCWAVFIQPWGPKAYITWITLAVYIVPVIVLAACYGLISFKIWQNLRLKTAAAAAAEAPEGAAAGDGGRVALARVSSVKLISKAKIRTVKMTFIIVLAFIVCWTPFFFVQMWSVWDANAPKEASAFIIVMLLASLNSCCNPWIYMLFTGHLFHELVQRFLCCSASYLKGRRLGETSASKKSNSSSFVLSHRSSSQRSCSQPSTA
Method in brief: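 Oxytocin-evoked intracellular calcium rise measured by FLIPR^TETRA fluorescence (Calcium-6 dye, 3 min read) in CHEM-1-hOTR cells. Test compounds, 10-point 1:3 dilutions, were added 15 min at 37 °C before an EC80 oxytocin challenge (EC80 set each assay day); buffer HBSS with 20 mM HEPES.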

[3] = target: human Arginine Vasopressin Receptor V2 (AVPR2) (Homo sapiens (Human), UniProt P30518); assay: Vasopressin V2 receptor antagonist assay (cAMP TR-FRET, 1321N1 cells); format: cell-based
Sequence of human Arginine Vasopressin Receptor V2 (AVPR2) (P30518 whole entry): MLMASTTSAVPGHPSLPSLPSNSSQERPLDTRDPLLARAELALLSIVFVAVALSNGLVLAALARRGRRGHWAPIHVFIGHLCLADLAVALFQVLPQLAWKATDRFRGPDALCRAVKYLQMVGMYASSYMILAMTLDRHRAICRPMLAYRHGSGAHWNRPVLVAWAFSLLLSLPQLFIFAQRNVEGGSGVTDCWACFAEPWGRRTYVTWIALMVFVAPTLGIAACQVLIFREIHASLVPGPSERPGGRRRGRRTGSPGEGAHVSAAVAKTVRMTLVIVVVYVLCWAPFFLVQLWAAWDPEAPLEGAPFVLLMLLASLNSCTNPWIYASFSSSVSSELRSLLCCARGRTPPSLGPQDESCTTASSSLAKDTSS
Method: The purpose of the assay was to determine the inhibitory effect of synthesized compounds on the Vasopressin receptor 2. […] Arginine Vasopressin (AVP) evokes an increase in intracellular cAMP in these cells which is measured in a TR-FRET assay using a Europium cAMP tracer and ULight labelled antibody reagents contained in a LANCE Ultra cAMP kit (Perkin Elmer #TRF0263). […] Test compounds were assessed for their ability to affect the magnitude of the response to AVP, with antagonists showing a concentration-dependent decrease in the AVP-mediated reduction in TR-FRET signal.
cAMPZen V2 assay ready cells were thawed at 37° C. and resuspended directly from frozen in 9 ml growth medium consisting of DMEM supplemented with 10% v/v fetal bovine serum, 1× non-essential amino acids, and 1 mM sodium pyruvate. Cells were spun at 1000 rpm for 3 minutes and the supernatant was carefully removed and discarded. The pellet was resuspended in 5 ml stimulation buffer and the cell density determined using the Vi-Cell automated cell counter. The cell suspension was diluted to a 0.2×10^6/ml suspension ready for plating. […] Stimulation buffer consisted of HBSS (+Ca/+Mg) supplemented with 5 mM HEPES, 0.1% BSA stabiliser and 0.5 mM IBMX.
At the start of each assay day the potency of AVP was assessed and an EC80 concentration determined for subsequent compound profiling. Assays were performed by first an addition of 2.5 μl of control or test compound at 4× final concentration in stimulation buffer followed by 2.5 μl of AVP at 4× final concentration in stimulation buffer. After a 1 hour reaction, detection reagents were added by first an addition of 5 μl EU-cAMP tracer, followed by 5 μl ULight-anti-cAMP both diluted as per the manufacturer's instructions. […] For compound profiling, test compounds were dispensed by the Labcyte Echo (10-point curve, 1:3 dilutions) in a target 0.1 μl volume then diluted 750-fold in stimulation buffer containing 3% DMSO prior to addition to the cells. At the end of the incubation period, 2.5 μl of AVP in stimulation buffer was added at the previously determined EC80 concentration.

MDR1 (P-gp) = assay: in vitro; settings: dog, MDCK-MDR1
MDR1 (P-glycoprotein) = assay: MDR1-MDCK effective efflux assay (Transwell, 10 μM, 1 hour), MDR1-MDCK cells; format: in vitro ADME; settings: dog, MDCK-MDR1, pH 7.4, Papp AB MDR1
Method: (§1) The MDR1-MDCK effective efflux assay was performed as described in the BioFocus Standard Operating Procedure, ADME-SOP-56. Both wild-type (WT) and MDR1-MDCK cells (Solvo Biotechnology) were seeded onto 24-well Transwell plates at 2.35×10^5 cells per well and used in confluent monolayers after a 3 day culture at 37° C. under 5% CO2. For both cell types, test and control compounds (propranolol, vinblastine) were added (10 μM, 0.1% DMSO final, n=2) to donor compartments of the Transwell plate assembly in assay buffer (Hanks balanced salt solution supplemented with 25 mM HEPES, adjusted to pH 7.4) for both apical to basolateral (A>B) and basolateral to apical (B>A) measurements. Incubations were performed at 37° C., with samples removed from both donor and acceptor chambers at T=0 and 1 hour and compound analysed by mass spectrometry (LC-MS/MS) including an analytical internal standard.
(§2) Where V is the volume of each Transwell compartment (apical 125 basolateral 600 and concentrations are the relative MS responses for compound (normalized to internal standard) in the donor chamber before incubation and acceptor chamber at the end of the incubation. Area=area of cells exposed for drug transfer (0.33 cm2).
(§3) Efflux ratios (Papp B>A/Papp A>B) were calculated for each compound from the mean Papp values in each direction for both wild-type and MDR1-MDCK cells.
(§4) In order to confirm the involvement of MDR1 in any efflux seen, an “effective efflux ratio” (EER) was calculated by comparing compound efflux ratios (ER) in the two cell types, i.e. EER=ER(MDR1−MDCK)/ER(wild-type MDCK)
(§5) This ratio illustrates the effect of the over-expressed MDR1 normalised for the background movement of compound through the wild-type cells.
(§6) Lucifer Yellow (LY) was added to the apical buffer in all wells to assess viability of the cell layer. Compound recovery from the wells was determined from MS responses (normalized to internal standard) in donor and acceptor chambers at the end of incubation compared to response in the donor chamber pre-incubation.

MDR1-MDCK cells = assay: as above; format: in vitro ADME; settings: MDCK-MDR1
Method: as §1, §2, §3, §4, §5, §6

[4] = tested on: wild-type (WT) MDCK cells; assay: MDR1-MDCK effective efflux assay (Transwell, 10 μM, 1 hour), wild-type MDCK cells; format: in vitro ADME; settings: MDCK
Method: as §1, §2, §3, §4, §5, §6

[5] = as above; format: in vitro ADME; settings: dog, MDCK, pH 7.4, Papp AB WT
Method: as §1, §2, §3, §4, §5, §6

Sequence of human Arginine Vasopressin Receptor 1a (AVPR1a) (P37288 whole entry): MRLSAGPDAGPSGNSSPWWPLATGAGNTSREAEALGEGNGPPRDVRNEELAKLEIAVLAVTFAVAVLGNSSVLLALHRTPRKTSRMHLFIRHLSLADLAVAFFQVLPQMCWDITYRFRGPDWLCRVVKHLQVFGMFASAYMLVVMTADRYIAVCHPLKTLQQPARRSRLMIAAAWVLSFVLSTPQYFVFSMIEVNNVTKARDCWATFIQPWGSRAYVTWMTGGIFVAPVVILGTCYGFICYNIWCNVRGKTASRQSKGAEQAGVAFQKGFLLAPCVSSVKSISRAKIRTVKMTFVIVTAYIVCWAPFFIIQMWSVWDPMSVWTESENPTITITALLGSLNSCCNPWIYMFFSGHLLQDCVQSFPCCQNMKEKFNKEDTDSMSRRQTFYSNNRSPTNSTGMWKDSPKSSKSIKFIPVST

## CC1(N2Cc3cc(Cl)ccc3-n3c(nnc3C3CC4(C3)CN(c3ccc(F)cn3)C4)C2)CC1 [Compound No. 255, 8-chloro-1-(2-(5-fluoropyridin-2-yl)-2-azaspiro[3.3]heptan-6-yl)-5-(1-methylcyclopropyl)-5,6-dihydro-4H-benzo[f][1,2,4]triazolo[4,3-a][1,4]diazepine]
[1]
  IC50: < 100 nM
[2]
  IC50: > 1000 nM
[3]
  IC50: 100 to 500 nM
MDR1 (P-gp)
  Papp A→B at 2 h: > 20 ×10⁻⁶ cm/s

## CCC(=O)N1Cc2cc(Cl)ccc2-n2c(nnc2C2CC3(C2)CN(c2cnccn2)C3)C1 [compound 110]
[1]
  IC50: < 100 nM
MDR1 (P-glycoprotein)
  Papp A→B at 1 h, 10 μM: < 7 ×10⁻⁶ cm/s
MDR1-MDCK cells
  MDR1 EER: +
  MDR1 ER: +
[2]
  IC50: > 1000 nM
[4]
  WT ER: +
[5]
  Papp A→B at 1 h, 10 μM: 10 to 20 ×10⁻⁶ cm/s

## CCC(=O)N1Cc2cc(Cl)ccc2-n2c(nnc2C2CC3(C2)CN(c2cccc(F)n2)C3)C1 [compound 113]
[1]
  IC50: < 100 nM
MDR1 (P-glycoprotein)
  Papp A→B at 1 h, 10 μM: < 7 ×10⁻⁶ cm/s
MDR1-MDCK cells
  MDR1 EER: +
  MDR1 ER: +
[2]
  IC50: > 1000 nM
[4]
  WT ER: +++
[5]
  Papp A→B at 1 h, 10 μM: > 20 ×10⁻⁶ cm/s

## O=C(C1CCC1)N1Cc2cc(Cl)ccc2-n2c(nnc2C2CC3(C2)CN(c2ccc(F)cn2)C3)C1 [compound 114]
[1]
  IC50: < 100 nM
MDR1 (P-glycoprotein)
  Papp A→B at 1 h, 10 μM: < 7 ×10⁻⁶ cm/s
MDR1-MDCK cells
  MDR1 EER: +
  MDR1 ER: +
[2]
  IC50: > 1000 nM
[4]
  WT ER: +
[5]
  Papp A→B at 1 h, 10 μM: < 7 ×10⁻⁶ cm/s

## O=C(C(F)F)N1Cc2cc(Cl)ccc2-n2c(nnc2C2CC3(C2)CN(c2ccc(F)cn2)C3)C1 [compound 116]
[1]
  IC50: < 100 nM
MDR1 (P-glycoprotein)
  Papp A→B at 1 h, 10 μM: < 7 ×10⁻⁶ cm/s
MDR1-MDCK cells
  MDR1 EER: +
  MDR1 ER: +
[2]
  IC50: > 1000 nM
[4]
  WT ER: ++++
[5]
  Papp A→B at 1 h, 10 μM: > 20 ×10⁻⁶ cm/s

## CCC(=O)N1Cc2cc(Cl)ccc2-n2c(nnc2C2CC3(C2)CN(c2cccc(C#N)n2)C3)C1 [compound 125]
[1]
  IC50: < 100 nM
MDR1 (P-glycoprotein)
  Papp A→B at 1 h, 10 μM: < 7 ×10⁻⁶ cm/s
MDR1-MDCK cells
  MDR1 EER: +
  MDR1 ER: +
[2]
  IC50: > 1000 nM
[4]
  WT ER: +++
[5]
  Papp A→B at 1 h, 10 μM: > 20 ×10⁻⁶ cm/s

## O=C(N1Cc2cc(Cl)ccc2-n2c(nnc2C2CC3(C2)CN(c2ccc(F)cn2)C3)C1)C1(F)CC1 [compound 156]
[1]
  IC50: < 100 nM
MDR1 (P-glycoprotein)
  Papp A→B at 1 h, 10 μM: 10 to 20 ×10⁻⁶ cm/s
MDR1-MDCK cells
  MDR1 EER: ++
  MDR1 ER: +
[2]
  IC50: > 1000 nM
[4]
  WT ER: +++
[5]
  Papp A→B at 1 h, 10 μM: > 20 ×10⁻⁶ cm/s

## CC1c2nnc(C3CC4(C3)CN(c3ccc(F)cn3)C4)n2-c2ccc(Cl)cc2CN1C(=O)OC1CC(F)(F)C1 (stereo not shown) [compound 193, 3,3-difluorocyclobutyl 8-chloro-1-(2-(5-fluoropyridin-2-yl)-2-azaspiro[3.3]heptan-6-yl)-4-methyl-4H-benzo[f][1,2,4]triazolo[4,3-a][1,4]diazepine-5(6H)-carboxylate]
[1]
  IC50: < 100 nM
MDR1 (P-glycoprotein)
  Papp A→B at 1 h, 10 μM: > 20 ×10⁻⁶ cm/s
MDR1-MDCK cells
  MDR1 EER: +++
  MDR1 ER: +++
[2]
  IC50: > 1000 nM
[4]
  WT ER: +++
[5]
  Papp A→B at 1 h, 10 μM: > 20 ×10⁻⁶ cm/s

## Cc1cccc(N2CC3(CC(c4nnc5n4-c4ccc(Cl)cc4CN(C4CC4)C5)C3)C2)n1 [compound 218]
[1]
  IC50: < 100 nM
MDR1 (P-gp)
  Papp A→B at 2 h: > 20 ×10⁻⁶ cm/s

## Cc1nc(N2CC3(CC(c4nnc5n4-c4ccc(Cl)cc4CN(C4CC4)C5)C3)C2)ncc1F [compound 220]
[1]
  IC50: < 100 nM
MDR1 (P-gp)
  Papp A→B at 2 h: > 20 ×10⁻⁶ cm/s

## Fc1ccc(N2CC3(CC(c4nnc5n4-c4ccc(Cl)cc4CN(C4CC4)C5)C3)C2)nc1 [compound 223]
[1]
  IC50: < 100 nM
[2]
  IC50: > 1000 nM
[3]
  IC50: < 100 nM
MDR1 (P-gp)
  Papp A→B at 2 h: > 20 ×10⁻⁶ cm/s

## Fc1cnc(N2CC3(CC(c4nnc5n4-c4ccc(Cl)cc4CN(C4CC4)C5)C3)C2)nc1 [compound 224]
[1]
  IC50: < 100 nM
MDR1 (P-gp)
  Papp A→B at 2 h: > 20 ×10⁻⁶ cm/s

## Clc1ccc2c(c1)CN(C1CC1)Cc1nnc(C3CC4(C3)CN(c3ncccn3)C4)n1-2 [compound 225]
[1]
  IC50: < 100 nM
MDR1 (P-gp)
  Papp A→B at 2 h: > 20 ×10⁻⁶ cm/s

## O=C(C1CC1)N1CC2(CC(c3nnc4n3-c3ccc(Cl)cc3CN(C3CC3)C4)C2)C1 [compound 226, (6-(8-chloro-5-cyclopropyl-5,6-dihydro-4H-benzo[1,2,4]triazolo[4,3-a][1,4]diazepin-1-yl)-2-azaspiro[3.3]heptan-2-yl)(cyclopropyl)methanone]
MDR1 (P-gp)
  Papp A→B at 2 h: < 7 ×10⁻⁶ cm/s

## Cc1nc(N2CC3(CC(c4nnc5n4-c4ccc(Cl)cc4CN(C)C5)C3)C2)ccc1F [compound 242]
[1]
  IC50: < 100 nM
MDR1 (P-gp)
  Papp A→B at 2 h: > 20 ×10⁻⁶ cm/s

## Fc1ccc(N2CC3(CC(c4nnc5n4-c4ccc(Cl)cc4CN(CC(F)(F)F)C5)C3)C2)nc1 [compound 259, 8-chloro-1-(2-(5-fluoropyridin-2-yl)-2-azaspiro[3.3]heptan-6-yl)-5-(2,2,2-trifluoroethyl)-5,6-dihydro-4H-benzo[f][1,2,4]triazolo[4,3-a][1,4]diazepine]
[1]
  IC50: < 100 nM
MDR1 (P-gp)
  Papp A→B at 2 h: > 20 ×10⁻⁶ cm/s
